Target: human BACE-1 (Homo sapiens, UniProt P56817)
Test: in vitro BACE Assay-1 (CEREP, fluorogenic substrate)
Type: biochemical
Settings: for IC50: recombinant enzyme, pH 4.5, 60 min at 37° C.; for inhibition at 1 µM / % Inh @ 1 μM: test compound at 1 μM; for % Inh @ 10 μM / inhibition at 10 µM: test compound at 10 μM
Procedure: This assay was run by CEREP (Catalog Ref. 761-B, Referred to SOP No. 1C131; ERMOLIEFF, J., LOY, J. A., KOELSCH, G. and TANG, J., Proteolytic activation of recombinant pro-memapsin 2 (pro-BACE) studied with new fluorogenic substrates, Biochemistry, (2000) Vol. 39, p. 12450).
More specifically the assay, run at 50 μL in a 96 well plate, evaluated the effect of test compound on the activity of the human BACE-1 quantified by measuring the formation of Mca-S-E-V-N-L-NH2 from Mca-S-E-V-N-L-D-A-E-F-R-K(Dnp)-R—R—NH2, using a recombinant enzyme.
The test compound, reference compound or water (control) was added to a buffer containing 0.09 M sodium acetate (pH 4.5) and 0.25 μg BACE-1. Compound interference with the fluorimetric detection method due to autofluorescence was then checked by measurements at the wavelengths defined to evaluate the enzyme activity. Thereafter, the reaction was initiated by adding 7.5 μM of the substrate Mca-S-E-V-N-L-D-A-E-F-R-K(Dnp)-R—R—NH2 and the mixture was incubated for 60 min at 37° C. For control basal measurement, the substrate was omitted from the reaction mixture. Immediately after the incubation, the fluorescence intensity emitted by the reaction product Mca-S-E-V-N-L-NH2 was measured at λex=320 nm and λem=405 nm using a microplate reader (Ultra, Tecan). The standard inhibitory reference compound was OM99-2, which was tested in each experiment at several concentrations to obtain an inhibition curve from which its IC50 value was calculated.
Representative compounds of the present invention were tested in the assay as described above, with results as listed in Table 3, below.

human BACE-1, sequence (P56817 46-501): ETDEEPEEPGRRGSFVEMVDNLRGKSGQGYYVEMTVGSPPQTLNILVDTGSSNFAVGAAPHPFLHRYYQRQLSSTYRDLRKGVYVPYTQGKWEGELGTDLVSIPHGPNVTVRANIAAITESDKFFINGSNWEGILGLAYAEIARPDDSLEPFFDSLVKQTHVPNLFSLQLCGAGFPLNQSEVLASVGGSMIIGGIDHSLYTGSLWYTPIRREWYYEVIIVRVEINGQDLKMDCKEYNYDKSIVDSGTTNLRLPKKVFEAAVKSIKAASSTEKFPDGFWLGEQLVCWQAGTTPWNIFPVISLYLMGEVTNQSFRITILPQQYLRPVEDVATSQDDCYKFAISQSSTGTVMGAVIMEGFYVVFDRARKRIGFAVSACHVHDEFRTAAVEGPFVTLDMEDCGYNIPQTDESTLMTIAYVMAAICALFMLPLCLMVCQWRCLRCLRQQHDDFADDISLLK

COc1ccccc1-c1ccc2nc(N)c(C(CCCN(CCC(C)(C)C)c3nccn3C)C3CCOCC3)cc2c1 (stereo not drawn) [Compound 36] showed an IC50 of 500 nM and an inhibition at 1 µM of 76%.

Nc1nc2ccc(-c3ccccc3F)cc2cc1C(CCC(=O)NCC1CC1)C1CCOCC1 (stereo not drawn) [Compound 2] was tested, and the “% Inh @ 10 μM” value was 59%.

Cn1ccnc1N(CCC(C)(C)C)C(=O)CCC(c1cc2cc(-c3cccc(F)c3)ccc2nc1N)C1CCOCC1 (stereo not drawn) [Compound 38] gave an IC50 of 470 nM and an inhibition at 10 µM of 69%.

CN(C(=O)CCC(c1cc2cc(-c3ccccc3F)ccc2nc1N)C1CCCCC1)C1CCCCC1 (single isomer, unassigned) [Compound 11] was tested, and the “% Inh @ 1 μM” value was 28%.

CC(C)(C)CCN(CCCC(c1cc2cc(-c3ccccc3F)ccc2nc1N)C1CCOCC1)CCN1CCOCC1 (stereo not drawn) [Compound 43, 3-[4-[(3,3-Dimethyl-butyl)-(2-morpholin-4-yl-ethyl)-amino]-1-(tetrahydro-pyran-4-yl)-butyl]-6-(2-fluoro-phenyl)-quinolin-2-ylamine] was tested, and the inhibition at 10 µM was 78%.

Cn1ccnc1CN(CCC(C)(C)C)C(=O)CCC(c1cc2cc(-c3ccccc3OC(F)(F)F)ccc2nc1N)C1CCOCC1 (stereo not drawn) [Compound 56] was tested, and the “% Inh @ 10 μM” value was 73%.

For CC(C)(C)CCN(Cc1ccccc1)C(=O)CCC(c1cc2cc(-c3ccccc3F)ccc2nc1N)C1CCOCC1 (stereo not drawn) [Compound 34], the IC50 was 390 nM and the inhibition at 10 µM was 68%.

In the case of Cn1ccnc1N(CCC(C)(C)C)C(=O)CCC(c1cc2cc(-c3ccccn3)ccc2nc1N)C1CCOCC1 (stereo not drawn) [Compound 27], the IC50 is reported as 1800 nM and the inhibition at 10 µM is reported as 91%.

For Cn1ccnc1CN(CCC(C)(C)C)C(=O)CCC(c1cc2cc(-c3ccccc3C(F)(F)F)ccc2nc1N)C1CCOCC1 (stereo not drawn) [Compound 55], the IC50 was 2400 nM and the “% Inh @ 10 μM” value was 90%.

With Nc1nc2ccc(-c3cccs3)cc2cc1C(CCC(=O)NC12CC3CC(CC(C3)C1)C2)C1CCOCC1 (stereo not drawn) [Compound 21] the IC50 was 690 nM and the inhibition at 1 µM was 87%.

COc1cc2nc(N)c(C(CCC(=O)NCCC(C)(C)C)C3CCOCC3)cc2cc1-c1ccccc1F (stereo not drawn) [Compound 19] was tested, and the “% Inh @ 10 μM” value was 14%.

Work on COc1cc2nc(N)c(C(CCC(=O)N(CCN3CCOCC3)C3CCCCC3)C3CCOCC3)cc2cc1-c1ccccc1F (stereo not drawn) [Compound 53] yielded an IC50 of 2200 nM and an inhibition at 10 µM of 55%.

For CC(C)(C)OCCNC(=O)CCC(c1cc2cc(-c3ccccc3F)ccc2nc1N)C1CCOCC1 (stereo not drawn) [Compound 15], the IC50 was 540 nM and the inhibition at 10 µM was 113%.

CCOc1ccccc1-c1ccc2nc(N)c(C(CCC(=O)N(CCC(C)(C)C)Cc3nccn3C)C3CCOCC3)cc2c1 (stereo not drawn) [Compound 51, 4-[2-Amino-6-(2-ethoxy-phenyl)-quinolin-3-yl]-N-(3,3-dimethyl-butyl)-N-(1-methyl-1H-imidazol-2-ylmethyl)-4-(tetrahydro-pyran-4-yl)-butyramide] gave an IC50 of 320 nM and an inhibition at 10 µM of 99%.

CC(C)(C)CCNC(=O)CCC(c1cc2cc(-c3ccccc3F)ccc2nc1N)C1CCOCC1 (stereo not drawn) [Compound 7] showed an IC50 of 260 nM and an inhibition at 10 µM of 83%.

For COc1ccccc1-c1cc2cc(C(CCn3cc(C(C)(C)C)nn3)C3CCOCC3)c(N)nc2cc1OC (stereo not drawn) [Compound 20], the IC50 was 890 nM and the inhibition at 10 µM was 92%.

Cn1ccnc1CN(CCC(C)(C)C)C(=O)CCC(c1cc2cc(-c3ccccc3)ccc2nc1N)C1CCOCC1 (stereo not drawn) [Compound 25] was tested, and the IC50 was 320 nM and the “% Inh @ 10 μM” value was 72%.

CN(CCCC(c1cc2cc(-c3ccccc3F)ccc2nc1N)C1CCOCC1)CC1CCCCC1 (stereo not drawn) [Compound 13] was tested, and the “% Inh @ 10 μM” value was 77%.

In the case of Cn1ccnc1CN(CCC(C)(C)C)C(=O)CCC(c1cc2cc(-c3ccc[nH]3)ccc2nc1N)C1CCOCC1 (stereo not drawn) [Compound 24], the IC50 is reported as 1400 nM and the “% Inh @ 10 μM” value is reported as 93%.

COc1cc2nc(N)c(C(CCCN(CCN3CCOCC3)C3CCCCC3)C3CCOCC3)cc2cc1-c1ccccc1F (stereo not drawn) [Compound 52] showed an IC50 of 3600 nM and an inhibition at 10 µM of 55%.

CC(C)(C)CCN(Cc1ccccn1)C(=O)CCC(c1cc2cc(-c3ccccc3F)ccc2nc1N)C1CCOCC1 (stereo not drawn) [Compound 35] showed an IC50 of 330 nM and an inhibition at 10 µM of 116%.

With Cn1ccnc1CN(CCC(C)(C)C)C(=O)CCC(c1cc2cc(-c3ccccc3F)ccc2nc1N)C1CCOCC1 (stereo not drawn) [Compound 39] the IC50 was 350 nM and the “% Inh @ 1 μM” value was 93%.

CC(C)(CO)CNCCCC(c1cc2cc(-c3ccccc3F)ccc2nc1N)C1CCOCC1 (stereo not drawn) [Compound 6] showed an IC50 greater than 5000 nM and an inhibition at 10 µM of 43%.

With CC(C)(C)CCN(CCCC(c1cc2cc(-c3ccccc3F)ccc2nc1N)C1CCOCC1)Cc1ccccn1 (stereo not drawn) [Compound 28] the IC50 was 880 nM and the inhibition at 10 µM was 74%.

In the case of Nc1nc2ccc(-c3ccccc3F)cc2cc1C(CCC(=O)NCC1CCCCC1)C1CCOCC1 (stereo not drawn) [Compound 12], the IC50 is reported as 350 nM and the inhibition at 10 µM is reported as 74.5%.

Compound CC(C)(C)CCN(Cc1cncs1)C(=O)CCC(c1cc2cc(-c3ccccc3F)ccc2nc1N)C1CCOCC1 (stereo not drawn) [Compound 42] has an IC50 of 320 nM and an inhibition at 10 µM of 65%.

COc1cc2nc(N)c(C(CCn3cc(C(C)(C)C)nn3)C3CCOCC3)cc2cc1-c1ccccc1F (stereo not drawn) [Compound 17] showed an IC50 of 1400 nM and an inhibition at 10 µM of 73%.

Nc1nc2ccc(-c3ccccc3F)cc2cc1C(CCC(=O)N(CCN1CCCC1)C1CCCCC1)C1CCOCC1 (stereo not drawn) [Compound 41] was tested, and the IC50 was 450 nM and the inhibition at 10 µM was 65%.

With COc1ccccc1-c1ccc2nc(N)c(C(CCC(=O)N(CCC(C)(C)C)Cc3nccn3C)C3CCOCC3)cc2c1 (stereo not drawn) [Compound 45] the IC50 was 530 nM and the “% Inh @ 1 μM” value was 94%.

With CC(C)(C)OCCNCCCC(c1cc2cc(-c3ccccc3F)ccc2nc1N)C1CCOCC1 (stereo not drawn) [Compound 10] the IC50 was 830 nM and the inhibition at 10 µM was 47%.

With CN(CC1CC1)C(=O)CCC(c1cc2cc(-c3ccccc3F)ccc2nc1N)C1CCOCC1 (stereo not drawn) [Compound 4] the “% Inh @ 10 μM” value was 71%.

In the case of Cn1ccnc1CN(CCCC(c1cc2cc(-c3ccccc3F)ccc2nc1N)C1CCOCC1)CCC(C)(C)C (stereo not drawn) [Compound 29], the IC50 is reported as 1500 nM and the “% Inh @ 1 μM” value is reported as 54%.

For CCOc1cc2nc(N)c(C(CCn3cc(C(C)(C)C)nn3)C3CCOCC3)cc2cc1-c1ccccc1F (stereo not drawn) [Compound 22, 3-[3-(4-tert-Butyl-[1,2,3]triazol-1-yl)-1-(tetrahydro-pyran-4-yl)-propyl]-7-ethoxy-6-(2-fluoro-phenyl)-quinolin-2-ylamine], the IC50 was 150 nM and the inhibition at 10 µM was 65%.

For COc1cc2nc(N)c(C(CCCNCCC(C)(C)C)C3CCOCC3)cc2cc1-c1ccccc1F (stereo not drawn) [Compound 16], the IC50 was greater than 620 nM and the inhibition at 10 µM was 88%.

In the case of Nc1nc2ccc(-c3ccccc3F)cc2cc1C(CCC(=O)NCCO)C1CCOCC1 (stereo not drawn) [Compound 1], the “% Inh @ 10 μM” value is reported as 34%.

Work on Cn1ccnc1CN(CCC(C)(C)C)C(=O)CCC(c1cc2cc(-c3cccs3)ccc2nc1N)C1CCOCC1 (stereo not drawn) [Compound 31, 4-(2-Amino-6-thiophen-2-yl-quinolin-3-yl)-N-(3,3-dimethyl-butyl)-N-(1-methyl-1H-imidazol-2-ylmethyl)-4-(tetrahydro-pyran-4-yl)-butyramide] yielded an IC50 of 420 nM, an inhibition at 1 µM of 79% and an inhibition at 10 µM of 98%.

With CN(CCCC(c1cc2cc(-c3ccccc3F)ccc2nc1N)C1CCOCC1)CC1CC1 (stereo not drawn) [Compound 3] the “% Inh @ 10 μM” value was 35%.

In the case of Nc1nc2ccc(-c3ccccc3F)cc2cc1C(CCC(=O)NC12CC3CC(CC(C3)C1)C2)C1CCOCC1 (stereo not drawn) [Compound 23], the IC50 is reported as 570 nM and the inhibition at 1 µM is reported as 97%.

For Cn1ccnc1CN(CCC(C)(C)C)C(=O)CCC(c1cc2cc(-c3cccc4cc[nH]c34)ccc2nc1N)C1CCOCC1 (stereo not drawn) [Compound 49], the “% Inh @ 10 μM” value was 99%.

For Cn1ccnc1CN(CCC(C)(C)C)C(=O)CCC(c1cc2cc(-c3cccc(C(F)(F)F)c3)ccc2nc1N)C1CCOCC1 (stereo not drawn) [Compound 54], the “% Inh @ 10 μM” value was 8%.

With CCOc1ccc(-c2ccc3nc(N)c(C(CCC(=O)N(CCC(C)(C)C)Cc4nccn4C)C4CCOCC4)cc3c2)cc1 (stereo not drawn) [Compound 50] the “% Inh @ 10 μM” value was 22%.

In the case of CN(CC1CCCCC1)C(=O)CCC(c1cc2cc(-c3ccccc3F)ccc2nc1N)C1CCOCC1 (stereo not drawn) [Compound 18], the “% Inh @ 10 μM” value is reported as 77%.

CC(C)(C)CCN(CCN1CCOCC1)C(=O)CCC(c1cc2cc(-c3ccccc3F)ccc2nc1N)C1CCOCC1 (stereo not drawn) [Compound 47, 4-[2-Amino-6-(2-fluoro-phenyl)-quinolin-3-yl]-N-(3,3-dimethyl-butyl)-N-(2-morpholin-4-yl-ethyl)-4-(tetrahydro-pyran-4-yl)-butyramide] was tested, and the IC50 was 370 nM and the inhibition at 10 µM was 58%.

In the case of Cn1ccnc1CN(CCC(C)(C)C)C(=O)CCC(c1cc2cc(-c3ccc(F)cc3)ccc2nc1N)C1CCOCC1 (stereo not drawn) [Compound 37], the “% Inh @ 10 μM” value is reported as 82%.

Source: patent US7786116B2, “2-amino-quinoline derivatives useful as inhibitors of β-secretase (BACE)” (Janssen Pharmaceutica N.V., priority 2008, dated 2010)
